The record followed here is the NIST ThermoML archive (doi:10.1021/je049762q).

Data set [1] can be described thus: Molar enthalpy of transition or fusion.

Numbers after ± are expanded uncertainties.

For the molecule `Clc1ccc(Cl)cc1` [1,4-dichlorobenzene], the Triple point temperature runs as follows: (Crystal 1) 326.24 ± 0.09 K; (Crystal 2) 306 ± 2 K; (Crystal 3) 275 ± 0.4 K. The results for the “Molar enthalpy of transition or fusion” value in data set [1] (Crystal 1), in data set [1] (Crystal 2) and in data set [1] (Crystal 3) were 4.28 ± 0.0153 kcal/mol, 0.0433 ± 0.0122 kcal/mol and 0.296 ± 0.0122 kcal/mol, respectively.

Turning to `Clc1cc(Cl)cc(Cl)c1` [1,3,5-trichlorobenzene], the Triple point temperature (Crystal) is 335.92 ± 0.09 K. Moreover, the “Molar enthalpy of transition or fusion” value in data set [1] (Crystal) came to 4.196 ± 0.0215 kcal/mol.

Take `Brc1ccc(Br)cc1` [1,4-dibromobenzene]: the Triple point temperature (Crystal) was found to be 360.48 ± 0.09 K. In data set [1] (Crystal), the “Molar enthalpy of transition or fusion” value was 4.873 ± 0.0158 kcal/mol.

Turning to `Brc1cc(Br)cc(Br)c1` [1,3,5-tribromobenzene], the Triple point temperature (Crystal) amounted to 394.96 ± 0.16 K. Besides, the “Molar enthalpy of transition or fusion” value in data set [1] (Crystal) was found to be 5.191 ± 0.0122 kcal/mol.
